# From article PMC11984924, “Dipeptidic Phosphonates: Potent Inhibitors of Pseudomonas aeruginosa Elastase B Showing Efficacy in a Murine Keratitis Model” (Advanced Science, 2025)
# Legend:
# 44 key molecular targets = test: SafetyScreen44 in vitro panel (whole panel); design: species or system human; conditions: 100 µM
# From the text: Moreover, we explored the safety profile of frontrunner (R)‐30 in more detail in order to detect additional crucial off‐target interactions. For this purpose, we employed the SafetyScreen44 in vitro panel comprising selected binding, inhibition and uptake assays.^[ [35] ^] The panel is a specialized pharmacological profiling tool that tests compounds against 44 key molecular targets, aiming to identify potential safety risks early in drug discovery. […]
# The off-target Safety Screen44TM was performed by the CRO Eurofins Cerep SA (Celle-
# L'Evescault, France) according to their protocols.[13] […]
# MMP-1 MMP-2 MMP-3 TACE (ADAM17)
# Compound [% inhibition at [% inhibition at [% inhibition at [% inhibition at 100
# [1] = Plasma stability, Wistar rat; format: in vitro ADME; conditions: read-out: Rat Plasma t1/2
# Procedure: To determine stability in plasma, the compound (1 µM) was incubated with pooled CD -1 […]
# mouse/human/Wistar rat or Göttingen minipig plasma (Neo Biotech, Nanterre, France).
# Samples were taken by mixing aliquots with 4 volumes of acetonitrile containing internal […]
# standard (125 nM diphenhydramine). The plasma stability of procain, propantheline and diltiazem were determined in parallel to confirm the enzymatic activity. Samples were stored […]
# on ice until the end of the incubation and precipitated protein was removed by centrifugation […]
# (15 min, 4 °C, 4,000 g, two centrifugation steps). Concentration of the remaining test compound at the different time points was analyzed by HPLC-MS/MS (TSQ Quantum Access MAX, […]
# Thermo Fisher, Dreieich, Germany) and used to determine half-life (t1/2).
# Table S2: Additional in vitro ADMET data for selected dipeptides. n.d.: not determined.
# Kinetic Liver S9 Clint [µL/mg/min] Plasma t1/2 [min] LogD7.4 […]
# pH 7.4 [µM] Mouse Human Mouse Human
# [2] = In vivo pharmacokinetic study in CD-1 mice, 30 mg/kg SC; conditions: male, mouse, 30 mg/kg subcutaneous
# Procedure: page 60: Figure S7: Basolateral concentration of 9 (A) and 30 (B) in the Calu-3 permeability model. […] For pharmacokinetic experiments, outbred male CD-1 mice (Charles River, Netherlands), 4 weeks old, were used. The animal studies were conducted in accordance with the recommendations of the European Community (Directive 2010/63/EU, 1st January 2013). All animal procedures were performed in strict accordance with the German regulations of the Society for Laboratory Animal Science (GV-SOLAS) and the European Health Law of the Federation of Laboratory Animal Science Associations (FELASA). Animals were excluded from further analysis if sacrifice was necessary according to the human endpoints established by the ethical board. All experiments were approved by the ethical board of the […] Verbraucherschutz und […], Oldenburg, Germany. 30 was subjected to a focused PK study and was administered 30 mg/kg SC. At time points t= […] euthanatized and blood was collected from the heart. For all PK studies, whole blood was collected into Eppendorf tubes coated with 0.5 M EDTA and immediately spun down at 13,000 rpm for 10 min at 4°C. The plasma was transferred into a new Eppendorf tube and then stored at -80°C until analysis. Then, a broncheoalveolar lavage was conducted using isotonic sodium chloride solution for all PK studies. For all PK studies, lung, kidney and liver were aseptically removed and homogenized using a Polytron (Kinematica) in isotonic sodium chloride solution. Organ samples were aliquoted into Eppendorf tubes and stored at -80°C until analysis. Moreover, spontaneous urine was also collected. […] system and coupled to an AB Sciex QTrap6500+ mass spectrometer as described previously.[10] Mass spectrometric conditions can be found in Table S5. First, a calibration curve was prepared by spiking different concentrations of 30 into the respective matrix (mouse […] (1 picture or pasted object on this page, not shown here) page 61: plasma (pooled, from CD-1 mice) for plasma samples, isotonic sodium chloride solution for BALF samples, lung tissue for lung samples, kidney tissue for kidney samples, liver tissue for liver samples and urine for urine samples). Caffeine was used as an internal standard. In addition, quality control samples (QCs) were prepared for 30 with the respective matrix. The following extraction procedure was used: 7.5 μl of a plasma sample (calibration samples, QCs […] internal standard for 5 min at 2000 rpm on an Eppendorf MixMate® vortex mixer. 10 μl of a urine sample (calibration samples, QCs or PK samples) was extracted with 40 μl of methanol containing 12.5 ng/ml of caffeine as internal standard for 5 min at 2000 rpm on an Eppendorf MixMate® vortex mixer. Then samples (plasma and urine) were spun down at 13.000 rpm for 5 min. Supernatants were transferred to standard HPLC-glass vials. 50 μl of a BALF / lung tissue / kidney tissue or liver tissue sample (calibration samples, QCs or PK samples) were extracted with 50 μl of methanol and 1 μl caffeine (concentration 1 μg/ml in methanol) for 5 min at 800 rpm on an Eppendorf MixMate® vortex mixer. Then samples (BALF, liver, kidney, lung) were spun down at 4,000 rpm for 40 min at 4°C. Supernatants were transferred to 96well V-bottom plates (Greiner). Urea was used to enable calculation of epithelial lining fluid (ELF) concentrations. Peak areas of each sample and of the corresponding internal standard were analyzed using MultiQuant 3.0 software (AB Sciex). Peak areas of the respective sample were normalized to the internal standard peak area. Peaks of PK samples were quantified using the calibration curve. The accuracy of the calibration curve was determined using QCs independently prepared on different days. PK parameters were determined using a non- compartmental analysis with PKSolver.[11] ELF concentrations were calculated using the following formula (2).[12] (1) V_ELF=V_BALF × (Urea_BALF)/(Urea_Plasma ) (2) c_ELF=c_BALF× V_BALF/V_ELF S60
SMILES,SafetyScreen44: number of targets inhibited (44 key molecular targets),half-life at 1 µM [1],"Kp ([2]; CD-1, epithelial lining fluid (ELF) / plasma, sc, read-out: ELF/plasma ratio)","AUC(0-t) ([2]; CD-1, sc, plasma)","CL/F ([2]; CD-1, sc, plasma)","Cmax ([2]; CD-1, sc, plasma)","MRT ([2]; CD-1, sc, plasma)","Tmax ([2]; CD-1, sc, plasma)","half-life ([2]; CD-1, sc, plasma)"
CC(=O)c1ccc(NC(=O)[C@@H](NC(=O)[C@@H](CC(C)C)P(=O)(O)O)C(C)C)cc1 [(R)‐30],ten targets by >50%,–,–,–,–,–,–,–,–
CC(=O)c1ccc(NC(=O)[C@@H](NC(=O)C(CC(C)C)P(=O)(O)O)C(C)C)cc1 (stereo partly drawn) [compound 30],–,> 4 h,~0.38,249 ± 15.5 µg·h/mL,1.3 ± 0.3 mL/min/kg,32200 ± 8500 ng/mL,24.6 ± 16 h,0.75 ± 0.4 h,18.5 ± 11 h
